A word on the EC50: it is the concentration at which the effect is half-maximal.

Calls of active or inactive are those of the source. The rule behind the calls is not given here. Where a SMILES comes first, the peptide text is derived from it. The star is where a group is joined. Cbz = O=C(OCc1ccccc1)*; OtBu = CC(C)(C)O*

Our source for the Activity and EC50 values is ChEMBL document CHEMBL1156425, “Proteasome inhibition induces glutathione synthesis and protects cells from oxidative stress: relevance to Parkinson disease” (J Biol Chem, 2007).

Assay [1] has as its system PC-12. Kind of assay: Increase in reduced glutathione level in rat PC12 cells after 24 hrs. The class given is functional, cell-based.
Assay [2] deals with PC-12. Kind of assay: Reversal of increase in glutathione level in rat PC12 cells at 1 uM in presence of 30 uM SB-203580 after 24 hrs relative to control. The class given is functional.
Assay [3] deals with PC-12. Kind of assay: Increase in reduced glutathione level in rat PC12 cells at 1 uM after 24 hrs. The class given is functional.
For assay [4], the system named is PC-12. Kind of assay: Reversal of increase in glutathione level in rat PC12 cells at 1 uM in presence of 30 nM cycloheximide after 24 hrs relative to control. The class given is functional.
The test system of assay [5] is PC-12. Kind of assay: Inhibition of 6-hydroxydopamine induced cytotoxicity in differentiated rat PC12 cells pretreated for 24 hrs by lactate dehydrogenase release assay. The class given is functional, cell-based.
Assay [6] relates to PC-12. Kind of assay: Reversal of increase in glutathione level in rat PC12 cells at 1 uM in presence of 3 uM SB-203580 after 24 hrs relative to control. It counts as functional.
Assay [7] deals with PC-12. Kind of assay: Inhibition of 150 uM 6-hydroxydopamine induced ROS production in rat PC12 cells pretreated for 24 hrs by MTT assay. The class given is functional, cell-based. A general note: Tetrazolium assays rely on reduction of a dye to a coloured formazan, in cell work by metabolically active cells.
Assay [8] has as its system PC-12. Kind of assay: Reversal of increase in glutathione level in rat PC12 cells at 1 uM in presence of 10 uM SB-203580 after 24 hrs relative to control. It counts as functional.
Assay [9] has as its system PC-12. Kind of assay: Reversal of increase in glutathione level in rat PC12 cells at 1 uM in presence of 10 uM wortmannin after 24 hrs relative to control. The class given is functional.
For assay [10], the system named is PC-12. Kind of assay: Reversal of increase in glutathione level in rat PC12 cells at 1 uM in presence of 100 nM cycloheximide after 24 hrs relative to control. The class given is functional.
Assay [11] relates to PC-12. Kind of assay: Increase in GLCLC subunit mRNA expression in rat PC12 cells at 1 uM after 12 hrs. It counts as functional, cell-based.
Assay [12] deals with PC-12. Kind of assay: Inhibition of 300 uM 6-hydroxydopamine induced ROS production in rat PC12 cells pretreated at 1 uM for 24 hrs by MTT assay. It counts as functional, cell-based.
Assay [13] relates to PC-12. Kind of assay: Reversal of cytoprotection activity in rat PC12 cells pretreated at 1 uM for 24 hrs in presence of p38 MAPK inhibitor SB-203580. The class given is functional, cell-based.
Assay [14] relates to PC-12. Kind of assay: Reversal of increase in glutathione level in rat PC12 cells at 1 uM in presence of 10 uM SP600125 after 24 hrs relative to control. The class given is functional.
The subject of assay [15] is PC-12. Kind of assay: Inhibition of 200 uM hydrogen peroxide induced ROS production in rat PC12 cells pretreated for 24 hrs by MTT assay. The class given is functional, cell-based.
The test system of assay [16] is PC-12. Kind of assay: Inhibition of 6-hydroxydopamine induced cytotoxicity in differentiated rat PC12 cells pretreated for 24 hrs by MTT assay. The class given is functional, cell-based.
The subject of assay [17] is PC-12. Kind of assay: Inhibition of proteosome activity in rat PC12 cells at 0.1 uM after 24 hrs relative to control. The class given is cell-based. The arrangement: scale not given: the % may be the effect or the level left.
Assay [18] deals with PC-12. Kind of assay: Increase in glutathione level in differentiated rat PC12 cells after 24 hrs. The class given is functional, cell-based.
Assay [19] relates to PC-12. Kind of assay: Reversal of increase in glutathione level in rat PC12 cells at 1 uM in presence of 30 uM PD-98059 after 24 hrs relative to control. It counts as functional.
In assay [20] the test system is PC-12. Kind of assay: Inhibition of 6-hydroxydopamine-induced cytotoxicity in rat PC12 cells pretreated for 24 hrs by MTT assay. It counts as functional, cell-based.
Assay [21] relates to PC-12. Kind of assay: Inhibition of proteosome activity in rat PC12 cells at 0.1 uM after 6 hrs relative to control. It counts as cell-based. Further details: scale not given: the % may be the effect or the level left.
The subject of assay [22] is PC-12. Kind of assay: Increase in oxidized glutathione level in rat PC12 cells at 1 uM after 12 hrs. It counts as functional, cell-based.
The subject of assay [23] is PC-12. Kind of assay: Translocation of Nrf2 protein to nucleus in rat PC12 cells at 1 uM around 6 or 9 hrs. It counts as functional, cell-based.
Assay [24] relates to PC-12. Kind of assay: Reversal of increase in GLCLC subunit mRNA expression in rat PC12 cells at 1 uM after 12 hrs in presence of p38 MAPK inhibitor SB-203580. It counts as functional, cell-based.
The test system of assay [25] is PC-12. Kind of assay: Inhibition of 300 uM hydrogen peroxide induced ROS production in rat PC12 cells pretreated at 1 uM for 24 hrs by MTT assay. It counts as functional, cell-based.
Assay [26] deals with PC-12. Kind of assay: Inhibition of proteosome activity in rat PC12 cells at 1 uM after 24 hrs relative to control. The class given is cell-based. Further details: scale not given: the % may be the effect or the level left.
For assay [27], the system named is PC-12. Kind of assay: Increase in oxidized glutathione level in rat PC12 cells at 1 uM after 24 hrs. It counts as functional, cell-based.
In assay [28] the test system is PC-12. Kind of assay: Inhibition of hydrogen peroxide induced cytotoxicity in rat PC12 cells pretreated for 24 hrs by MTT assay. It counts as functional, cell-based.
In assay [29] the test system is PC-12. Kind of assay: Reversal of increase in glutathione level in rat PC12 cells at 1 uM in presence of 10 nM cycloheximide after 24 hrs relative to control. The class given is functional.
Assay [30] relates to PC-12. Kind of assay: Reversal of increase in glutathione level in rat PC12 cells at 1 uM in presence of 3 uM BIM after 24 hrs relative to control. The class given is functional.
Assay [31] relates to PC-12. Kind of assay: Inhibition of proteosome activity in rat PC12 cells at 1 uM after 6 hrs relative to control. The class given is cell-based. Further details: scale not given: the % may be the effect or the level left.
Assay [32] has as its system PC-12. Kind of assay: Inhibition of proteosome activity in rat PC12 cells at 0.3 uM after 24 hrs relative to control. The class given is cell-based. The arrangement: scale not given: the % may be the effect or the level left.
In assay [33] the test system is PC-12. Kind of assay: Inhibition of proteosome activity in rat PC12 cells at 0.3 uM after 6 hrs relative to control. The class given is cell-based. Further details: scale not given: the % may be the effect or the level left.
Assay [34] has as its system PC-12. Kind of assay: Inhibition of 6-hydroxydopamine induced cytotoxicity in rat PC12 cells pretreated for 24 hrs assessed as elevation of intracellular glutathione level. The class given is functional, cell-based.
Assay [35] deals with PC-12. Kind of assay: Inhibition of hydrogen peroxide induced cytotoxicity in rat PC12 cells pretreated for 24 hrs assessed as elevation of intracellular glutathione level. The class given is functional, cell-based.
The subject of assay [36] is PC-12. Kind of assay: Cytotoxicity against rat PC12 cells after 24 hrs by MTT assay. It counts as functional, cell-based. As to conditions: PC-12, 24 h.

On to `CC[C@H](C)[C@H](NC(=O)OCc1ccccc1)C(=O)N[C@@H](CCC(=O)OC(C)(C)C)C(=O)N[C@@H](C)C(=O)N[C@H](C=O)CC(C)C` (Cbz-IE(OtBu)AL-aldehyde), for which, in [1], the result was Active.

Take `CC(C)C[C@@H](C=O)NC(=O)[C@H](CC(C)C)NC(=O)[C@H](CC(C)C)NC(=O)OCc1ccccc1` (Cbz-Leu-Leu-Leu-aldehyde): the outcome in [1] was Active.

`CC(=O)N[C@@H](CSC(=O)[C@]1([C@@H](O)C(C)C)NC(=O)[C@H](C)[C@@H]1O)C(=O)O` [LACTACYSTIN]: the Activity is listed as 133.5 nmol/mg in assay [2]; 320.5 nmol/mg in [3]; 150 nmol/mg in assay [4]; 220 nmol/mg in assay [6]; 190.5 nmol/mg in assay [8]; 248.7 nmol/mg in [9]. The Activity in assay [10] is 98.3 nmol/mg; in assay [1], “Dose-dependent effect”; in assay [14], 341.4 nmol/mg; in assay [16] it was “Dose-dependent effect”; in assay [17] it was 94.3%; in [18] it was “Dose-dependent effect”. In addition, the Activity is 234 nmol/mg in assay [19]; “Dose-dependent effect” in [20]; 98% in [21]; 77.2% in [26]; “Dose-dependent effect” in [28]; 216.8 nmol/mg in assay [29]. The Activity in [30] came out at 354 nmol/mg; in assay [31] it was 49.7%; in assay [32], 84.9%; in [33] it was 70.3%. The result in assay [5], in [7], in [11], in assay [12], in assay [13] and in assay [15] was Active. Further, the outcome in [23], in assay [24], in [25] and in [27] was Active. In assay [22], the result was inactive.

Take `CC(=O)N[C@@H](CS)C(=O)O`: the result in assay [34] and in [35] was Active.

Molecule `NCCc1cc(O)c(O)cc1O` [OXIDOPAMINE] came in with a 50% effective concentration (EC50) in [36] of 106 µM.
